Results reported in ChEMBL document CHEMBL5370599, “Discovery of a 53BP1 Small Molecule Antagonist Using a Focused DNA-Encoded Library Screen” (J Med Chem, 2023).
pIC50: −log10 of the molar value.

target: TP53-binding protein 1 (Homo sapiens, UniProt Q12888); assay: Displacement of Biotin-p53K381acK382me2 from N-terminal his6-tagged 53BP1 (1484 to 1603 residues) (unknown origin) expressed in Rosetta2 BL21 (DE3) pLysS competent cells by TR-FRET assay; assay type: single protein; conditions: not given
Sequence (Q12888 whole entry, the tested form may be a part): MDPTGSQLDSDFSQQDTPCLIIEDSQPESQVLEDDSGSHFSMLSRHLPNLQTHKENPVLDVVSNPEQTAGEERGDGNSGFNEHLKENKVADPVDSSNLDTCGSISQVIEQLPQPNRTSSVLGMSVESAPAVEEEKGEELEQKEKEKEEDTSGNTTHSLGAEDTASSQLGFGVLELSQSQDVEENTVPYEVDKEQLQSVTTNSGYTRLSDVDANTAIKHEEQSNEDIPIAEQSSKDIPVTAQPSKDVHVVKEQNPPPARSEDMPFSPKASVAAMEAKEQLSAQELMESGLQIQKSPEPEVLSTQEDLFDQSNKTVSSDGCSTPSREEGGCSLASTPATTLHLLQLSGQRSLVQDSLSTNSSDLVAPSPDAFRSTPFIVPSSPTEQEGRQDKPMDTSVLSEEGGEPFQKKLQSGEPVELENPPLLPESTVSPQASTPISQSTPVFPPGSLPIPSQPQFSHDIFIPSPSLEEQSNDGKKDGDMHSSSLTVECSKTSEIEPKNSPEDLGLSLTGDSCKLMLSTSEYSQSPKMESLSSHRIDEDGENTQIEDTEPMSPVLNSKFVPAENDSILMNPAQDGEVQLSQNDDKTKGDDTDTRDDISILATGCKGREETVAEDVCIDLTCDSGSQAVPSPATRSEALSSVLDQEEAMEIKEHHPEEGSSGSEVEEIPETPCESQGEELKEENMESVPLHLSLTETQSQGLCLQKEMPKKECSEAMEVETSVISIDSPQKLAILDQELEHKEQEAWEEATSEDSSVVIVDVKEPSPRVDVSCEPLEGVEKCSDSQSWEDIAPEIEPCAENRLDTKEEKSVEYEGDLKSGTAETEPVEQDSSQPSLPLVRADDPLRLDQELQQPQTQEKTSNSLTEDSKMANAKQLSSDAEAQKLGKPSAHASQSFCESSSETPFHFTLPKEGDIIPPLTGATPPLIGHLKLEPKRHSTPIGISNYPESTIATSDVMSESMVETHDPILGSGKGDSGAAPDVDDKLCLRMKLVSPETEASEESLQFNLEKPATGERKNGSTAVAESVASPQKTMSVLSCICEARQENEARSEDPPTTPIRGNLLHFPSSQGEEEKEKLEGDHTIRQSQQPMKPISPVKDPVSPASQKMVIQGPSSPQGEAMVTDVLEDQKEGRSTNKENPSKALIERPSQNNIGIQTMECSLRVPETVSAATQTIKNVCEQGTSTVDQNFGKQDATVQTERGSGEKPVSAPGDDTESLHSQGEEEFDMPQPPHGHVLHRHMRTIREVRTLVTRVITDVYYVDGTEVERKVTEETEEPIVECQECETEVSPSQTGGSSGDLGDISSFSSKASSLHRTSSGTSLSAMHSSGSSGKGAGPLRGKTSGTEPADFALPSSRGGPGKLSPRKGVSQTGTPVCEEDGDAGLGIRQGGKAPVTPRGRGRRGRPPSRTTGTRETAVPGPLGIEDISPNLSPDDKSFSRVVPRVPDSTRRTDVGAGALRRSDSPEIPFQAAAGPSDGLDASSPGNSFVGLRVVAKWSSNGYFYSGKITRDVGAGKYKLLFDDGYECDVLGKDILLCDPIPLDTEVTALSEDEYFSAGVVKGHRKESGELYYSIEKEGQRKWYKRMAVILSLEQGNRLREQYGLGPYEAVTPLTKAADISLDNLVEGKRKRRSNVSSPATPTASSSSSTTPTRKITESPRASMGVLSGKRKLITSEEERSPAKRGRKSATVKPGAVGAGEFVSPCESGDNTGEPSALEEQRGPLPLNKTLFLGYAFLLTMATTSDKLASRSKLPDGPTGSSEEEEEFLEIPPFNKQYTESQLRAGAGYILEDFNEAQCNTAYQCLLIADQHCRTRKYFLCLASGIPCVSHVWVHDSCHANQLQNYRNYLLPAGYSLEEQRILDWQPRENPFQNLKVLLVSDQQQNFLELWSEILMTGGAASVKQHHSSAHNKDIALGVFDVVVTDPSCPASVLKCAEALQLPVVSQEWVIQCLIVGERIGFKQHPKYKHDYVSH

Question: How did the pIC50 turn out when `CN1CCN(c2ccnc(C(=O)N3CCC[C@H](C(=O)Nc4cccc(N5CCNCC5)c4)C3)c2)CC1` was run?
Answer: Its pIC50 is 4.36.

Question: `CN1CCN(c2ccnc(C(=O)N3CC[C@H](C(=O)Nc4cccc(-c5ccc(C(N)=O)cc5)c4)C3)c2)CC1` was tested. Which pIC50 did it give?
Answer: The pIC50 was 5.66.

Question: How did the pIC50 turn out when `CN1CCN(c2ccnc(C(=O)N3CCC[C@H](C(=O)Nc4cncc(-c5ccccc5)c4)C3)c2)CC1` was run?
Answer: Its pIC50 is 5.23.

Question: How did the pIC50 turn out when `CN1CCN(c2ccnc(C(=O)N3CCC[C@H](C(=O)Nc4cccc(-c5ccc6c(c5)CNC6=O)c4)C3)c2)CC1` was run?
Answer: Its pIC50 is 5.47.

Question: How did the pIC50 turn out when `CN1CCN(c2ccnc(C(=O)N3CC[C@H]3C(=O)Nc3cccc(-c4ccc(C(N)=O)cc4)c3)c2)CC1` was run?
Answer: Its pIC50 is 5.24.

Question: `CN1CCN(c2ccnc(C(=O)N3CCC[C@H](C(=O)Nc4cccc(N5CCOCC5)c4)C3)c2)CC1` was tested. Which pIC50 did it give?
Answer: The pIC50 was 4.49.

Question: `CN1CCN(c2ccnc(C(=O)N3CCC[C@H](C(=O)Nc4cccc(-c5ccccc5)c4)C3)c2)CC1` was tested. Which pIC50 did it give?
Answer: Its pIC50 is 5.42.

Question: How did the pIC50 turn out when `COC(=O)c1cccc(-c2cccc(NC(=O)[C@H]3CCCN(C(=O)c4cc(N5CCN(C)CC5)ccn4)C3)c2)c1` was run?
Answer: Its pIC50 is 5.00.

Question: With `CCN1CCN(c2ccnc(C(=O)N3CCC[C@H](C(=O)Nc4cccc(-c5ccc(C(N)=O)cc5)c4)C3)c2)CC1` as the compound, how does the pIC50 read?
Answer: The pIC50 was 5.85.

Question: `CN1CCN(c2cccc(C(=O)N3CCC[C@H](C(=O)Nc4cccc(-c5ccc(C(N)=O)cc5)c4)C3)c2)CC1` was tested. Which pIC50 did it give?
Answer: Its pIC50 is 5.89.

Question: `CN1CCN(c2ccnc(C(=O)N3CCC[C@H](C(=O)Nc4ccccc4)C3)c2)CC1` was tested. Which pIC50 did it give?
Answer: The pIC50 was 4.66.

Question: `CCCN1CCN(c2ccnc(C(=O)N3CCC[C@H](C(=O)Nc4cccc(-c5ccc(C(N)=O)cc5)c4)C3)c2)CC1` was tested. Which pIC50 did it give?
Answer: Its pIC50 is 4.85.

Question: How did the pIC50 turn out when `CN1CCN(c2ccnc(C(=O)N3CCC[C@H](C(=O)Nc4cccc(-c5cccc(C(=O)O)c5)c4)C3)c2)CC1` was run?
Answer: The pIC50 was 4.08.

Question: How did the pIC50 turn out when `CN1CCN(c2ccnc(C(=O)N3CCC[C@H](C(=O)Nc4cc(-c5cccnc5)ncn4)C3)c2)CC1` was run?
Answer: The pIC50 was under 4.00.

Question: With `CN1CCN(c2ccnc(C(=O)N3CCC[C@H](C(=O)Nc4cccc(-c5ccc6[nH]ncc6c5)c4)C3)c2)CC1` as the compound, how does the pIC50 read?
Answer: Its pIC50 is 4.82.

Question: With `COC(=O)c1ccc(-c2cccc(NC(=O)[C@H]3CCCN(C(=O)c4cc(N5CCN(C)CC5)ccn4)C3)c2)cc1` as the compound, how does the pIC50 read?
Answer: The pIC50 was 5.00.

Question: How did the pIC50 turn out when `CN1CCN(c2ccnc(C(=O)N3CCC[C@H](C(=O)Nc4cccc(-c5ccc6[nH]cnc6c5)c4)C3)c2)CC1` was run?
Answer: The pIC50 was 4.42.

Question: `CNC(=O)c1cccc(-c2cccc(NC(=O)[C@H]3CCCN(C(=O)c4cc(N5CCN(C)CC5)ccn4)C3)c2)c1` was tested. Which pIC50 did it give?
Answer: The pIC50 was 4.96.

Question: `CN1CCN(c2ccnc(C(=O)N3CCC[C@H](C(=O)Nc4cccc(-c5ccccn5)c4)C3)c2)CC1` was tested. Which pIC50 did it give?
Answer: Its pIC50 is 4.74.

Question: How did the pIC50 turn out when `CN1CCN(c2ccnc(C(=O)N3CCC[C@H](C(=O)Nc4cccc(-c5ccc6c(c5)CCN6)c4)C3)c2)CC1` was run?
Answer: Its pIC50 is 5.11.

Question: `CC(C)N1CCN(c2ccnc(C(=O)N3CCC[C@H](C(=O)Nc4cccc(-c5ccc(C(N)=O)cc5)c4)C3)c2)CC1` was tested. Which pIC50 did it give?
Answer: The pIC50 was 5.39.

Question: `CN1CCN(c2ccnc(C(=O)N3CCC[C@H](C(=O)Nc4cccc(-c5cccc(C(N)=O)c5)c4)C3)c2)CC1` was tested. Which pIC50 did it give?
Answer: The pIC50 was 5.72.

Question: `CN1CCN(c2ccnc(C(=O)N3CCC[C@H](C(=O)Nc4cccc(-c5ccc6c(c5)CCCN6)c4)C3)c2)CC1` was tested. Which pIC50 did it give?
Answer: Its pIC50 is 4.92.

Question: How did the pIC50 turn out when `CNC(=O)c1ccc(-c2cccc(NC(=O)[C@H]3CCCN(C(=O)c4cc(N5CCN(C)CC5)ccn4)C3)c2)cc1` was run?
Answer: The pIC50 was 5.25.

Question: `CN1CCN(c2ccnc(C(=O)N3CCC[C@H](C(=O)Nc4cccc(-c5ccccc5)n4)C3)c2)CC1` was tested. Which pIC50 did it give?
Answer: The pIC50 was 5.13.

Question: How did the pIC50 turn out when `CN1CCN(c2ccnc(C(=O)N3CCC[C@H](C(=O)Nc4cccc(-c5ccncc5)c4)C3)c2)CC1` was run?
Answer: Its pIC50 is 5.18.

Question: How did the pIC50 turn out when `CN1CCN(c2ccnc(C(=O)N3CCC[C@H](C(=O)Nc4cccc(-c5ccc6c(c5)CCNC6)c4)C3)c2)CC1` was run?
Answer: Its pIC50 is 4.55.

Question: How did the pIC50 turn out when `CNC(=O)[C@H]1CCCN(C(=O)c2cc(N3CCN(C)CC3)ccn2)C1` was run?
Answer: The pIC50 was under 4.00.

Question: `CN1CCN(c2ccnc(C(=O)N3CCC[C@@H](C(=O)Nc4cccc(-c5ccc(C(N)=O)cc5)c4)C3)c2)CC1` was tested. Which pIC50 did it give?
Answer: The pIC50 was 4.82.

Question: With `CN1CCN(c2ccnc(C(=O)N3CCC[C@@H]3C(=O)Nc3cccc(-c4ccc(C(N)=O)cc4)c3)c2)CC1` as the compound, how does the pIC50 read?
Answer: Its pIC50 is 5.30.

Question: `CN1CCN(c2ccnc(C(=O)N3CCC[C@H](C(=O)Nc4cccc(-c5ccc(C(=O)O)cc5)c4)C3)c2)CC1` was tested. Which pIC50 did it give?
Answer: The pIC50 was 5.09.

tested on: TERT-RPE1; assay: Cytotoxicity against human RPE-1 cells assessed as reduction in cell viability measured upto 200 uM by celltiterglo 2.0 assay; assay type: toxicity, cell-based; conditions: tert-rpe1, 200 µM

Question: With `CN1CCN(c2ccnc(C(=O)N3CCC[C@H](C(=O)Nc4cccc(-c5ccc6c(c5)CNC6)c4)C3)c2)CC1.Cl.Cl.Cl` as the compound, how does the Activity read?
Answer: The Activity was “Non-Toxic”.

tested on: HEK-293T; assay: Cytotoxicity against HEK293T cells assessed as reduction in cell viability measured upto 200 uM by celltiterglo 2.0 assay; assay type: toxicity, cell-based; conditions: human

Question: How did the Activity turn out when `CN1CCN(c2ccnc(C(=O)N3CCC[C@H](C(=O)Nc4cccc(-c5ccc6c(c5)CNC6)c4)C3)c2)CC1.Cl.Cl.Cl` was run?
Answer: Its Activity is “Non-Toxic”.
